Test results taken from patent US4699924A, “Skin treatment composition” (priority 1983, dated 1987).
Read-outs that look alike come from different tables or passages of the source.

Columns and labels:
[1] = test system: guinea pig foot pad stratum corneum; experiment: Increase in extensibility of guinea pig foot pad stratum corneum; set-up: Increase in stratum corneum extensibility: unit not given here
Procedure: The ability of an additive to enhance the delivery to skin of 2-hydroxyoctanoic acid was measured in terms of the increase in extensibility of guinea pig foot pad stratum corneum following contact with each solution.
In this experiment, pieces of guinea pig foot pad stratum corneum, equilibrated at a relative humidity of 65%, were immersed in each solution for 3 hours at 20° C., and then removed, blotted dry and re-equilibrated at the same relative humidity. The extensibility of each piece of guinea pig foot pad stratum corneum was measured before and after this treatment in an extensiometer according to the method described in European Pat. No. 7785.

[2] = physchem; details: octanol/water
[3] = Dielectric constant of oils measured in a liquid state; assay type: physicochemical
Excerpt: The product can also optionally comprise an oil, fat or wax, herein referred to as "oil" having a dielectric constant of not greater than 3.0.
Examples of preferred "oils", when employed, together with their dielectric constants measured when they are in a liquid state are given below: […]

[4] = as recorded in Handbook of Chemistry & Physics, 57th Edition 1976-77; cited from earlier work
[5] = test system: guinea pig stratum corneum; experiment: Delivery of C14 labelled phenol to guinea pig stratum corneum; details: in words
Procedure: The phenol used in the preparation of each emulsion was C^14 labelled phenol.
Pieces of guinea pig stratum corneum were immersed in each of the above emulsions for 20 hours, after which they were removed, blotted dry and the amount of phenol retained by the corneum was measured by a radio tracer technique using a standard methodology.

Row | Structure (SMILES) | Dielectric constant [3] | Dielectric constant [4] | other results
1 | CCCCCCC(O)C(=O)O (stereo not drawn) [2-hydroxyoctanoic acid] | – | – | Increase in stratum corneum extensibility ([1]; 0.2 M 2-hydroxyoctanoic acid + additive at 5% w/w, 3 hours at 20° C., relative humidity 65%): 5; Increase in stratum corneum extensibility / delivery to skin, in words ([1]; conclusion in words): greatly enhanced; logP [2]: 2.24
2 | CCCCCCCCCCCCCCCC [n-hexadecane] | < 3.0 | – | –
3 | CCCCCCCC/C=C\CCCCCCCC(=O)O [oleic acid] | – | 2.46 | –
4 | CCCCCCCCCCCCCC [n-tetradecane] | < 3.0 | – | –
5 | CCCCC/C=C\C/C=C\CCCCCCCC(=O)O [linoleic acid] | – | 2.71 | –
6 | CCCCCCCCCCCCCCCCCC [n-octadecane] | < 3.0 | – | –
7 | CCCCCCCCCC [n-decane] | – | 1.99 | –
8 | Oc1ccccc1 [phenol] | – | – | Amount of phenol delivered to the skin relative to ordinary emulsion (Control) [5]: enhanced when a gel phase is present
9 | CCCCCCCCCCCC [n-dodecane] | – | 2.02 | –
10 | CCCCCCCCO [Octanol] | 10.3 | – | –
